The target in the first experiment is T1, human FAAH (Homo sapiens, UniProt O00519).
T1 construct: host or cells: COS-7 cells, transient transfection (FuGENE 6); 13,000 g membrane fraction solubilised in 1% Triton X-100
T1 sequence (O00519 1-579): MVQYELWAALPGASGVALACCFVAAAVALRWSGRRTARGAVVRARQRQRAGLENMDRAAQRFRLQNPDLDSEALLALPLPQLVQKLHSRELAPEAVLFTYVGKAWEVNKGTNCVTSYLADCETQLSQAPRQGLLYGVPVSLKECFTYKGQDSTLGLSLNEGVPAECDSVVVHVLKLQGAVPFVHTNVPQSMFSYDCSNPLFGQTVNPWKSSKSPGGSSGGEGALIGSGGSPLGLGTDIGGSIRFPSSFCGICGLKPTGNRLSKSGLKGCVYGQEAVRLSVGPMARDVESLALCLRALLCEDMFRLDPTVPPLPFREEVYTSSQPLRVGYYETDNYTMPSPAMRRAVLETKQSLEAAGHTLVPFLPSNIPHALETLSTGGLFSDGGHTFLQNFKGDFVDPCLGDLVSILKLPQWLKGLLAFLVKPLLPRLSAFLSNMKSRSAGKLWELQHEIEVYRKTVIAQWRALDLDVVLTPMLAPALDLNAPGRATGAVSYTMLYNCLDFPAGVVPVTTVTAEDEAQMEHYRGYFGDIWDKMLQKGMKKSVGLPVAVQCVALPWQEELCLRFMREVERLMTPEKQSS
Kind of experiment: Human FAAH biochemical inhibition assay (AMC arachidonoyl amide fluorescence). As to conditions: Table A, read-out: Activity (Ki) of other boronic acids tested, Table A. Here is the method:
Exemplary compounds are set forth in the Examples provided below. Compounds were assayed as inhibitors of human FAAH using the method described in detail in Example 286.
The following assays may be used to determine the inhibition of FAAH by the compounds of the present invention: (1) a fluorescence-based assay for fatty acid amide hydrolase compatible with high-throughput screening as described in Manjunath et al., Analytical Biochemistry (2005) 343:143-151; and (2) a high-throughput screening for the discovery of inhibitors of fatty acid amide hydrolase using a microsome-based fluorescent assay. Wang et al., Biomolecular Screening (2006) 1-9.
COS-7 cells were split the day before, 1:5 into 150 mm×25 mm cell culture dishes (Corning Inc., Cat. No. 430599). Transient transfection took place at 30-40% confluency according to FuGENE 6 Transfection Reagent (Roche, Cat. No. 11814 443 001).
The FuGENE transfection 6 reagent (45 uL) was added to 1410 μL of media (DMEM, serum free without pen/strep) in a 15 mL conical tube and incubated at room temp for 5 minutes, followed by the addition of FAAH plasmid DNA (15 μg) (OriGene Cat. No. TC119221, Genbank Accession No. NM_001441.1, 0.67 ug/uL) and a further incubation of 15 minutes at room temperature. The resulting solution was added into one dish of 30-40% confluent COS-7 cells in a drop-wise manner. The COS-7 cell dish was subsequently incubated for 48 hours. The cells are then harvested.
Media was aspirated from the dishes and the cells rinsed with 10 mL PBS. The PBS was removed and 3 mL of PBS added to the dish. The dish was scraped to resuspend the cells, and the subsequent cell suspension collected into a 15 mL conical tube. The cells were pelleted by centrifugation at 1200 rpm for 5 minutes in a bench top centrifuge. PBS was removed and the cell pellet snap frozen in liquid nitrogen and stored at −80° C.
COS-7 Cells—FAAH Purification: • (1) Fractionation: Frozen cell pellets from transient transfections were thawed on ice and resuspended in 12.5 mM Hepes pH 8.0, 100 mM NaCl, 1 mM EDTA (10 mL/0.2 g cell pellet). The pellets were dounce homogenized and then sonicated to produce cell extract. The cell extract was subsequently centrifuged at 1000 g to remove cellular debris. The pellet was discarded and the supernatant centrifuged at 13,000 g for 20 minutes. The pellet contained membrane bound FAAH. The supernatant was discarded and the pellet resolubilized. • (2) Re-solubilization: The fraction of interest, (13,000 g, membrane fraction) was re-suspended in 2.3 mL re-suspension buffer (20 mM Hepes pH 7.8, 10% v/v Glycerol, 1 mM EDTA, 1% Triton X-100) and the sample incubated on ice for 1 hour and then centrifuged to remove any particulate matter. The supernatant containing solubilized human FAAH was aliquoted and snap frozen in liquid nitrogen and stored at −80° C. until use. • (3) Characterization: Protein Concentration determined by Bradford assay. • SDS gel and Western blot to confirm presence of FAAH • FAAH activity assay • Km determination—96-well assay • Linear dependence—96-well assay • Standard compound Ki determination—384-well assay
Rat FAAH biochemical assays were carried out in a 96 well flat bottom black non-treated polystyrene plates (Corning Costar Catalogue #3915). FAAH reaction buffer: 50 mM Hepes (pH 7.5), 1 mM EDTA, 0.2% Triton X-100. FAAH substrate—AMC Arachidonoyl Amide (Cayman Chemicals Company, Catalog #10005098). The reaction was read in an Envision microtiter plate reader [Excitation filter 355 nm (40 nm bandpass); Emmision filter 460 nm (25 nm bandpass)]. The raw fluorescence was plotted on the y axis and the inhibitor concentration on the x axis to give a dose response inhibition curve. The data was fitted to a single site competitive inhibition equation, fixing the Km for the rat and human enzyme to 12 μM and 9 μM respectively. […]
Broadly, the Ki is a dissociation constant, usually derived from enzyme kinetics or from competition with a known ligand. With `O=C(NCCCO)c1ccc(B(O)O)cc1`, the inhibition constant (Ki) was more than 1000 nM.

The experiment is the same for the next values; noted with them: class given in each Example, read-out: Activity (Ki, inhibition of human FAAH).
For `CC/C=C/c1cc(OCCc2ccccc2)ccc1B(O)O` [Compound 183], the inhibitory constant (Ki) lay within 10 to 100 nM.
Still for that read-out and setting: then `OB(O)c1ccc(-c2nnc(CCC3CCCC3)o2)cc1` [Compound 33], with not above 10 nM; and `OB(O)c1ccc(-c2nnc(-c3ccccc3)o2)s1` [Compound 56], with 10 to 100 nM; and `CC(C)c1ccc(CN2CCC(c3ccc(B(O)O)cc3)CC2)cc1` [Compound 280], with 10 to 100 nM.
On to `CC(C)c1ccc(CN2CCC(Cc3nc4ccc(B(O)O)cc4o3)CC2)cc1` [Compound 301], for which the Ki lay within 10 to 100 nM.
`Cc1cc2cc(B(O)O)ccc2nc1Oc1ccccc1` [Compound 210]: the Ki was not above 10 nM.
`OB(O)c1cccc(-c2nnc(-c3ccccc3)o2)c1` [Compound 63]: the inhibitory constant (Ki) fell in the range of 100 to 1000 nM.
As for `COC(=O)/C=C/c1cc(OCCc2ccccc2)ccc1B(O)O` [Compound 100], the inhibitory constant (Ki) was not above 10 nM.
Still for that read-out and setting: then `CC(C)Cn1cc(B(O)O)cn1` [Compound 220], with 100 to 1000 nM.
On to `CCCc1cc(-c2ccccc2B(O)O)no1` [Compound 168], for which the inhibition constant Ki was more than 1000 nM.
Still for that read-out and setting: then `OB(O)c1ccc(C2CCN(Cc3ccccc3)CC2)cc1` [Compound 279], with 100 to 1000 nM.
Still for that read-out and setting: then `O=C1CC(c2nc3ccc(B(O)O)cc3o2)CN1Cc1ccccc1` (stereo not drawn) [Compound 249], with 10 to 100 nM.
On to `CC(C)(C)OC(=O)N1CCN(C(=O)CCB(O)O)CC1` [Compound 323], for which the Ki fell in the range of 100 to 1000 nM.
Same read-out and setting: in the case of `OB(O)c1ccc(-c2nnc(-c3ccc4c(c3)OCO4)o2)cc1` [Compound 45] it was not above 10 nM; in that of `OB(O)c1ccc(-c2nnc(Cc3ccccc3)o2)s1` [Compound 55], 10 to 100 nM.
On to `O=C(/C=C/c1cc(OCCc2ccccc2)ccc1B(O)O)NCc1ccco1` [Compound 288], for which the Ki is more than 1000 nM.
On the same count and under the same terms, then `OB(O)c1ccc2nc(OC3CCCC3)ccc2c1` [Compound 190], with not above 10 nM.
In the case of `Cc1nnc(/C=C/c2ccccc2B(O)O)o1` [Compound 28], the Ki lay within 100 to 1000 nM.
Same read-out and setting: in the case of `CCCc1noc(-c2ccc(B(O)O)cc2)n1` [Compound 272] it was not above 10 nM.
The same measure, in the same setting: then `OB(O)c1ccc(-c2ncc(-c3ccccc3)o2)cc1F` [Compound 1], with 10 to 100 nM.
Same read-out and setting: in the case of `CN(CCCc1ccc(B(O)O)cc1)S(=O)(=O)c1ccccc1` [Compound 238] it was not above 10 nM; in that of `CCCc1nnc(-c2ccsc2B(O)O)o1` [Compound 72], more than 1000 nM.
For the compound `OB(O)c1ccc(-c2cn(Cc3ccccc3)nn2)cc1` [Example 117], the Ki is not above 10 nM.
Same read-out and setting: in the case of `CCC/C=C/c1nnc(-c2ccc(B(O)O)cc2)o1` [Compound 25] it was not above 10 nM.
The same measure, in the same setting: then `CN(C)c1cccc(Oc2ccc3cc(B(O)O)ccc3n2)c1` [Compound 194], with not above 10 nM.
`CC(C)(C)OC(=O)NCCc1nnc(-c2ccc(B(O)O)cc2)o1` [Compound 82]: the Ki is 10 to 100 nM.
Same read-out and setting: in the case of `CC(C)CN1CCC(Cc2nc3ccc(B(O)O)cc3o2)CC1` [Compound 304] it was more than 1000 nM; in that of `CCCc1nnc(-c2ccc(B(O)O)c(-c3nnc(CCC)o3)c2)o1` [Compound 76], not above 10 nM; in that of `OB(O)c1ccc(-c2nnc(CCc3ccccc3)o2)cc1` [Compound 57], not above 10 nM.
Still for that read-out and setting: then `O=C(CCB(O)O)NCCc1ccccc1` [Compound 321], with 100 to 1000 nM; and `CC(=O)N/N=C/c1cc(OCCc2ccccc2)ccc1B(O)O` [Compound 120], with not above 10 nM.
With `CCCCCc1nnc(-c2ccc(B(O)O)cc2)o1` [Compound 30], the inhibitory constant (Ki) was not above 10 nM.
Same read-out and setting: then `CCOCc1nnc(-c2ccc(B(O)O)cc2)o1` [Compound 74], with 10 to 100 nM; and `CCCc1nnc(-c2c(F)cccc2B(O)O)o1` [Compound 262], with more than 1000 nM.
The same measure, in the same setting: in the case of `O=C(CCc1nc2ccc(B(O)O)cc2o1)N1CCCCC1` [Compound 247] it was 10 to 100 nM.
For the compound `OB(O)c1ccc2nc(CCc3ccccc3)sc2c1` [Compound 278], the inhibition constant Ki was not above 10 nM.
Same read-out and setting: then `O=C(CCc1ccc(B(O)O)cc1)NCc1ccccc1` [Compound 324], with 100 to 1000 nM.
On the same count and under the same terms, in the case of `OB(O)c1ccc([C@H]2OC[C@H](c3ccccc3)O2)cc1` [Compound 179] it was not above 10 nM; in that of `OB(O)c1ccc(-c2nnc(-c3ccccn3)o2)cc1` [Compound 65], 10 to 100 nM; in that of `COC(=O)C1CC(Cc2ccccc2)ON1Cc1ccc(B(O)O)c(F)c1` (stereo not drawn) [Compound 148], 10 to 100 nM.
Consider `OB(O)c1ccc2nc(Oc3ccccc3)ccc2c1` [Compound 187], for which the Ki was not above 10 nM.
Still for that read-out and setting: then `OB(O)c1ccc(-c2nnc(-c3ccccc3)o2)c(C(F)(F)F)c1` [Compound 81], with 100 to 1000 nM; and `OB(O)c1ccc(-c2nnc(-c3ccccc3)s2)cc1` [Compound 62], with not above 10 nM; and `OB(O)c1ccc2cn(Cc3ccccc3)nc2c1` [Compound 217], with not above 10 nM.
On the same count and under the same terms, in the case of `O=C1c2ccc(B(O)O)cc2C(=O)N1Cc1ccccc1` [Compound 308] it was not above 10 nM; in that of `O=C(CCc1ccccc1)N/N=C/c1ccccc1B(O)O` [Compound 116], more than 1000 nM.
Still for that read-out and setting: in the case of `CCCCCC1(CCCCC)CC(c2ccc(B(O)O)cc2)=NO1` [Compound 164] it was 100 to 1000 nM; in that of `OB(O)c1ccc(-c2nnc(Cc3ccsc3)o2)cc1` [Compound 59], not above 10 nM; in that of `OB(O)c1ccc2nc(Oc3ccccc3Cl)ccc2c1` [Compound 196], not above 10 nM.
As for `O=C1CCCN1CCc1nnc(-c2ccccc2B(O)O)o1` [Compound 263], the Ki was more than 1000 nM.
As for `OB(O)c1ccc2cc(Oc3cnccn3)ccc2c1` [Compound 186], the Ki is not above 10 nM.
Still for that read-out and setting: in the case of `CCCc1nnc(-c2ccccc2B(O)O)o1` [Compound 13] it was more than 1000 nM; in that of `CC(C)c1nnc(-c2ccccc2B(O)O)o1` [Compound 283], more than 1000 nM.
Regarding `CCCc1nc(-c2ccc(B(O)O)cc2)no1` [Compound 24], the Ki is not above 10 nM.
As for `OB(O)c1ccc2nc(Oc3ccccc3O)ccc2c1` [Compound 199], the inhibition constant Ki is not above 10 nM.
On to `OB(O)c1ccc2cc(CCc3ccccc3)oc2c1` [Compound 293], for which the Ki is not above 10 nM.
The same measure, in the same setting: in the case of `O=C(Cc1ccccc1)N/N=C/c1cc(OCc2ccccc2)ccc1B(O)O` [Compound 124] it was 10 to 100 nM; in that of `OB(O)c1ccc2nn(CCc3ccccc3)cc2c1` [Compound 315], not above 10 nM.
On the same count and under the same terms, in the case of `O=C(CCc1nnc(-c2ccc(B(O)O)cc2)o1)N1CCCCC1` [Compound 239] it was 10 to 100 nM.

(Values after patent publication US8957049B2, “Inhibitors of fatty acid amide hydrolase” (Infinity Pharmaceuticals, Inc., priority 2008, dated 2015).)
